Results as given in patent publication US9179678B2, “Substituted [1,2,4]triazoles and substituted tetrazoles as herbicides” (SYNGENTA LIMITED, priority 2012, dated 2015).

Assays:
Type in all cases: in vivo
[1] = tested on: Alopecurus myosuroides (ALOMY); assay: Post-emergence glasshouse herbicide test; conditions: POST Application, after 13 days
Procedure, shortened: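 Alopecurus myosuroides seeds were sown in pots of standard soil and grown for 8 days in a glasshouse at 24/16° C. day/night, 14 hours light and 65% humidity. The plants were then sprayed post-emergence with an aqueous solution made from the active ingredient in acetone/water (50:50) containing 0.5% Tween 20. Percentage plant damage was scored 13 days later.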

[2] = tested on: Solanum nigrum (SOLNI); assay: Post-emergence glasshouse herbicide test; conditions: POST Application, after 13 days
Procedure, shortened: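 Solanum nigrum seeds were sown in pots of standard soil and grown for 8 days in a glasshouse at 24/16° C. day/night, 14 hours light and 65% humidity. Plants were then sprayed post-emergence with the active ingredient formulated in acetone/water (50:50) containing 0.5% Tween 20. They were grown on under the same conditions with twice-daily watering, and percentage plant damage was scored after 13 days.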

[3] = tested on: Ipomoea hederacea (IPOHE); assay: Pre-emergence glasshouse herbicide test; conditions: PRE Application, after 13 days
[4] = tested on: Setaria faberi (SETFA); assay: Post-emergence glasshouse herbicide test; conditions: POST Application, after 13 days
Procedure, shortened: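 Setaria faberi seeds were sown in standard soil in pots and grown for 8 days in a glasshouse at 24/16° C. day/night, 14 hours light and 65% humidity. Plants were then sprayed post-emergence with the active ingredient in acetone/water (50:50) containing 0.5% Tween 20, regrown under the same conditions with twice-daily watering, and scored for percentage damage after 13 days.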

[5] = tested on: Echinochloa crus-galli (ECHCG); assay: Post-emergence glasshouse herbicide test; conditions: POST Application, after 13 days
[6] = tested on: Setaria faberi (SETFA); assay: Pre-emergence glasshouse herbicide test; conditions: PRE Application, after 13 days
[7] = tested on: Amaranthus retoflexus (AMARE); assay: Pre-emergence glasshouse herbicide test; conditions: PRE Application, after 13 days
[8] = tested on: Alopecurus myosuroides (ALOMY); assay: Pre-emergence glasshouse herbicide test; conditions: PRE Application, after 13 days
Procedure, shortened: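 Alopecurus myosuroides seeds were sown in standard soil in pots and kept one day in a glasshouse at 24/16° C. day/night, 14 hours light and 65% humidity. The soil was then sprayed pre-emergence with the active ingredient in acetone/water (50:50) containing 0.5% Tween 20. Plants grew on, watered twice daily, and percentage damage was scored 13 days later.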

[9] = tested on: Echinochloa crus-galli (ECHCG); assay: Pre-emergence glasshouse herbicide test; conditions: PRE Application, after 13 days
[10] = tested on: Solanum nigrum (SOLNI); assay: Pre-emergence glasshouse herbicide test; conditions: PRE Application, after 13 days
[11] = tested on: Amaranthus retoflexus (AMARE); assay: Post-emergence glasshouse herbicide test; conditions: POST Application, after 13 days
[12] = tested on: Ipomoea hederacea (IPOHE); assay: Post-emergence glasshouse herbicide test; conditions: POST Application, after 13 days
[13] = tested on: Ipomoea hederacea (IPOHE); assay: Post-emergence glasshouse herbicide test; conditions: POST Application, 1000 g/h, after 13 days
[14] = tested on: Amaranthus retoflexus (AMARE); assay: Post-emergence glasshouse herbicide test; conditions: POST Application, 1000 g/h, after 13 days
[15] = tested on: Echinochloa crus-galli (ECHCG); assay: Post-emergence glasshouse herbicide test; conditions: POST Application, 1000 g/h, after 13 days
[16] = tested on: Ipomoea hederacea (IPOHE); assay: Pre-emergence glasshouse herbicide test; conditions: PRE Application, 1000 g/h, after 13 days
[17] = tested on: Setaria faberi (SETFA); assay: Pre-emergence glasshouse herbicide test; conditions: PRE Application, 1000 g/h, after 13 days
[18] = tested on: Amaranthus retoflexus (AMARE); assay: Pre-emergence glasshouse herbicide test; conditions: PRE Application, 1000 g/h, after 13 days
[19] = tested on: Solanum nigrum (SOLNI); assay: Pre-emergence glasshouse herbicide test; conditions: PRE Application, 1000 g/h, after 13 days
[20] = tested on: Echinochloa crus-galli (ECHCG); assay: Pre-emergence glasshouse herbicide test; conditions: PRE Application, 1000 g/h, after 13 days

SMILES | percentage damage caused to the plant, IPOHE [13] | percentage damage caused to the plant, ALOMY ([1]; 1000 g/h) | percentage damage caused to the plant, AMARE [14] | percentage damage caused to the plant, SOLNI ([2]; 1000 g/h) | percentage damage caused to the plant, ECHCG [15] | percentage damage caused to the plant, SETFA ([4]; 1000 g/h) | percentage damage caused to the plant, IPOHE [16] | percentage damage caused to the plant, SETFA [17] | percentage damage caused to the plant, ALOMY ([8]; 1000 g/h) | percentage damage caused to the plant, AMARE [18] | percentage damage caused to the plant, SOLNI [19] | percentage damage caused to the plant, ECHCG [20] | further results
Cn1nnnc1NC(=O)c1nc2ccccc2n(-c2ccoc2)c1=O [Compound 5.013] | – | – | – | – | – | – | – | – | – | – | – | – | percentage damage caused to the plant, ALOMY ([1]; applied at 250 g/ha): 1 (1=0-19%); percentage damage caused to the plant, SOLNI ([2]; applied at 250 g/ha): 5 (5=80-100%); percentage damage caused to the plant, IPOHE ([3]; applied at 250 g/ha): 4 (4=60-79%); percentage damage caused to the plant, SETFA ([4]; applied at 250 g/ha): 1 (1=0-19%); percentage damage caused to the plant, ECHCG ([5]; applied at 250 g/ha): 1 (1=0-19%); percentage damage caused to the plant, SETFA ([6]; applied at 250 g/ha): 2 (2=20-39%); percentage damage caused to the plant, AMARE ([7]; applied at 250 g/ha): 5 (5=80-100%); percentage damage caused to the plant, ALOMY ([8]; applied at 250 g/ha): 1 (1=0-19%); percentage damage caused to the plant, ECHCG ([9]; applied at 250 g/ha): 2 (2=20-39%); percentage damage caused to the plant, SOLNI ([10]; applied at 250 g/ha): 5 (5=80-100%); percentage damage caused to the plant, AMARE ([11]; applied at 250 g/ha): 5 (5=80-100%); percentage damage caused to the plant, IPOHE ([12]; applied at 250 g/ha): 4 (4=60-79%)
Cn1nnnc1NC(=O)c1nc2ccc(F)cc2n(-c2ccccc2)c1=O [Compound 5.010] | – | – | – | – | – | – | – | – | – | – | – | – | percentage damage caused to the plant, ALOMY ([1]; applied at 250 g/ha): 1 (1=0-19%); percentage damage caused to the plant, SOLNI ([2]; applied at 250 g/ha): 5 (5=80-100%); percentage damage caused to the plant, IPOHE ([3]; applied at 250 g/ha): 2 (2=20-39%); percentage damage caused to the plant, SETFA ([4]; applied at 250 g/ha): 4 (4=60-79%); percentage damage caused to the plant, ECHCG ([5]; applied at 250 g/ha): 3 (3=40-59%); percentage damage caused to the plant, SETFA ([6]; applied at 250 g/ha): 1 (1=0-19%); percentage damage caused to the plant, AMARE ([7]; applied at 250 g/ha): 5 (5=80-100%); percentage damage caused to the plant, ALOMY ([8]; applied at 250 g/ha): 1 (1=0-19%); percentage damage caused to the plant, ECHCG ([9]; applied at 250 g/ha): 1 (1=0-19%); percentage damage caused to the plant, SOLNI ([10]; applied at 250 g/ha): 4 (4=60-79%); percentage damage caused to the plant, AMARE ([11]; applied at 250 g/ha): 5 (5=80-100%); percentage damage caused to the plant, IPOHE ([12]; applied at 250 g/ha): 5 (5=80-100%)
Cc1cc(-n2c(=O)c(C(=O)Nc3nnnn3C)nc3ccccc32)ccc1F [Compound 5.028] | – | – | – | – | – | – | – | – | – | – | – | – | percentage damage caused to the plant, ALOMY ([1]; applied at 500 g/ha): 4 (4=60-79%); percentage damage caused to the plant, SOLNI ([2]; applied at 500 g/ha): 5 (5=80-100%); percentage damage caused to the plant, IPOHE ([3]; applied at 500 g/ha): 5 (5=80-100%); percentage damage caused to the plant, SETFA ([4]; applied at 500 g/ha): 5 (5=80-100%); percentage damage caused to the plant, ECHCG ([5]; applied at 500 g/ha): 5 (5=80-100%); percentage damage caused to the plant, SETFA ([6]; applied at 500 g/ha): 5 (5=80-100%); percentage damage caused to the plant, AMARE ([7]; applied at 500 g/ha): 5 (5=80-100%); percentage damage caused to the plant, ALOMY ([8]; applied at 500 g/ha): 3 (3=40-59%); percentage damage caused to the plant, ECHCG ([9]; applied at 500 g/ha): 5 (5=80-100%); percentage damage caused to the plant, SOLNI ([10]; applied at 500 g/ha): 5 (5=80-100%); percentage damage caused to the plant, AMARE ([11]; applied at 500 g/ha): 5 (5=80-100%); percentage damage caused to the plant, IPOHE ([12]; applied at 500 g/ha): 5 (5=80-100%)
CCOc1cccc(-n2c(=O)c(C(=O)Nc3nnnn3C)nc3ccccc32)c1 [Compound 5.014] | 5 (5=80-100%) | 3 (3=40-59%) | 5 (5=80-100%) | 5 (5=80-100%) | 4 (4=60-79%) | 5 (5=80-100%) | 4 (4=60-79%) | 5 (5=80-100%) | 2 (2=20-39%) | 5 (5=80-100%) | 5 (5=80-100%) | 2 (2=20-39%) | –
Cn1nnnc1NC(=O)c1nc2cc(C(F)(F)F)ccc2n(C)c1=O [Compound 3.001] | 3 (3=40-59%) | 1 (1=0-19%) | 4 (4=60-79%) | 4 (4=60-79%) | 2 (2=20-39%) | 2 (2=20-39%) | 1 (1=0-19%) | 1 (1=0-19%) | 1 (1=0-19%) | 2 (2=20-39%) | 3 (3=40-59%) | 2 (2=20-39%) | –
Cn1nnnc1NC(=O)c1cc2cccnc2n(C)c1=O [Compound 1.001] | 2 (2=20-39%) | 1 (1=0-19%) | 3 (3=40-59%) | 5 (5=80-100%) | 3 (3=40-59%) | 1 (1=0-19%) | 1 (1=0-19%) | 1 (1=0-19%) | 1 (1=0-19%) | 2 (2=20-39%) | 2 (2=20-39%) | 1 (1=0-19%) | –
Cn1nnnc1NC(=O)c1nc2ccccc2n(-c2ccc(C(F)(F)F)c(Cl)c2)c1=O [Compound 5.040] | 5 (5=80-100%) | 2 (2=20-39%) | 5 (5=80-100%) | 5 (5=80-100%) | 2 (2=20-39%) | 2 (2=20-39%) | 3 (3=40-59%) | 1 (1=0-19%) | 1 (1=0-19%) | 5 (5=80-100%) | 5 (5=80-100%) | 1 (1=0-19%) | –
Cn1nnnc1NC(=O)c1cc2ccccc2n(-c2ccccc2)c1=O [Compound 7.001] | 2 (2=20-39%) | 1 (1=0-19%) | 3 (3=40-59%) | 4 (4=60-79%) | 2 (2=20-39%) | 1 (1=0-19%) | 1 (1=0-19%) | 1 (1=0-19%) | 1 (1=0-19%) | 2 (2=20-39%) | 1 (1=0-19%) | 1 (1=0-19%) | –
Cn1nnnc1NC(=O)c1nc2ccccc2n(-c2ccc(C(F)(F)F)cc2)c1=O [Compound 5.019] | 5 (5=80-100%) | 3 (3=40-59%) | 5 (5=80-100%) | 5 (5=80-100%) | 5 (5=80-100%) | 5 (5=80-100%) | 5 (5=80-100%) | 5 (5=80-100%) | 4 (4=60-79%) | 5 (5=80-100%) | 5 (5=80-100%) | 5 (5=80-100%) | –
